IC50 data for 26 molecules are collected here from patent publication US11352339B2 (MISSION THERAPEUTICS LIMITED, priority 2016, dated 2022).

The target of this assay is USP30 (Homo sapiens (Human), UniProt Q70CQ3). The experiment in a line: USP30 Biochemical IC50 Assay. To be noted: fluorescence polarisation, TAMRA labelled peptide linked to ubiquitin; 30 min pre-incubation, read after 2 h; read-out: IC50 range. In outline: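 Enzyme preincubated 30 min at room temperature with compound, then 50 nM TAMRA-labelled isopeptide-linked ubiquitin–peptide substrate added. Fluorescence polarisation (ex 540/em 590 nm) read at once and after 2 h at room temperature; duplicate reactions.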
USP30, sequence (Q70CQ3 57-517): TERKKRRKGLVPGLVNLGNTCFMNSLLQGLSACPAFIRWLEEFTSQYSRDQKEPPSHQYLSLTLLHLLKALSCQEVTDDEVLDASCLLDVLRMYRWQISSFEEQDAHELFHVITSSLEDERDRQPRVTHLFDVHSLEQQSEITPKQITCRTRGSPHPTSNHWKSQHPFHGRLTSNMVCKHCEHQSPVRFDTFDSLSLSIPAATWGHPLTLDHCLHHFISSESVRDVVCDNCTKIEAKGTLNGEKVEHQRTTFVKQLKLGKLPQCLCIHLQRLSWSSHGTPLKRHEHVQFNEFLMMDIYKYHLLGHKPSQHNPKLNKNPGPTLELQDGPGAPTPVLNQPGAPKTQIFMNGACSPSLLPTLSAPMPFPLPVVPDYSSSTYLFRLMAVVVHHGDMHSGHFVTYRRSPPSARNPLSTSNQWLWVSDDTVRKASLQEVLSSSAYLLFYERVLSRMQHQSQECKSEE
What is called IC50 is the concentration needed to halve the response being measured. As to `N#Cc1ccc(-c2ccnc(-c3nc([C@@H]4CCCN4C#N)no3)c2)cc1` [Example 176, (S)-2-(5-(4-(4-Cyanophenyl)pyridin-2-yl)-1,2,4-oxadiazol-3-yl)pyrrolidine-1-carbonitrile], the IC50 lay in the range of 100 to 1000 nM.

Take `N#Cc1ccc(-c2cc(-c3nc([C@@H]4CCCN4C#N)no3)ccn2)cc1` [Example 177, (S)-2-(5-(2-(4-Cyanophenyl)pyridin-4-yl)-1,2,4-oxadiazol-3-yl)pyrrolidine-1-carbonitrile]: the concentration for half-maximal inhibition (IC50) was in the range of 100 to 1000 nM.

In the case of `N#Cc1ccc2ccc(-c3nc([C@@H]4CCCN4C#N)no3)cc2c1` [Example 178, (S)-2-(5-(7-Cyanonaphthalen-2-yl)-1,2,4-oxadiazol-3-yl)pyrrolidine-1-carbonitrile], the IC50 lay in the range of 100 to 1000 nM.

Turning to `N#Cc1cccc(-c2cc(-c3nc(C4CCCN4C#N)no3)ccn2)n1` (centres unmarked) [Example 180, 4′-(3-(1-Cyanopyrrolidin-2-yl)-1,2,4-oxadiazol-5-yl)-[2,2′-bipyridine]-6-carbonitrile], the half-maximal inhibitory concentration (IC50) is 100 to 1000 nM.

With `N#Cc1cc(-c2cc(-c3nc([C@@H]4CCCN4C#N)no3)ccn2)ccn1` [Example 181, (S)-4-(3-(1-Cyanopyrrolidin-2-yl)-1,2,4-oxadiazol-5-yl)-[2,4′-bipyridine]-2 carbonitrile], the IC50 was under 100 nM.

As to `N#Cc1cc(-c2ccnc(-c3nc([C@@H]4CCCN4C#N)no3)c2)ccn1` [Example 182, (S)-2′-(3-(1-Cyanopyrrolidin-2-yl)-1,2,4-oxadiazol-5-yl)-[4,4′-bipyridine]-2-carbonitrile], the IC50 lay in the range of 100 to 1000 nM.

On to `N#Cc1cc(-c2cccc(-c3nc([C@@H]4CCCN4C#N)no3)n2)ccn1` [Example 183, (S)-6-(3-(1-Cyanopyrrolidin-2-yl)-1,2,4-oxadiazol-5-yl)-[2,4′-bipyridine]-2 carbonitrile], for which the IC50 was under 100 nM.

`N#CN1CCCC1c1noc(-c2ccnc(-c3cccc(OC(F)(F)F)c3)n2)n1` (centres unmarked) [Example 184, 2-(5-(2-(3-(Trifluoromethoxy)phenyl)pyrimidin-4-yl)-1,2,4-oxadiazol-3-yl)pyrrolidine-1-carbonitrile]: the IC50 is under 100 nM.

Regarding `N#Cc1ccc(-c2nccc(-c3nc([C@@H]4CCCN4C#N)no3)n2)cc1` [Example 185, (S)-2-(5-(2-(4-Cyanophenyl)pyrimidin-4-yl)-1,2,4-oxadiazol-3-yl)pyrrolidine-1-carbonitrile], the IC50 lay within 100 to 1000 nM.

In the case of `N#Cc1cccc(-c2nccc(-c3nc([C@@H]4CCCN4C#N)no3)n2)c1` [Example 186, (S)-2-(5-(2-(3-Cyanophenyl)pyrimidin-4-yl)-1,2,4-oxadiazol-3-yl)pyrrolidine-1-carbonitrile], the IC50 was under 100 nM.

For the molecule `N#Cc1cnn(-c2nccc(-c3nc([C@@H]4CCCN4C#N)no3)n2)c1` [Example 187, (S)-1-(4-(3-(1-Cyanopyrrolidin-2-yl)-1,2,4-oxadiazol-5-yl)pyrimidin-2-yl)-1H-pyrazole-4-carbonitrile], the IC50 fell in the range of 100 to 1000 nM.

As for `N#Cc1cc(-c2nccc(-c3nc([C@@H]4CCCN4C#N)no3)n2)ccn1` [Example 188, (S)-4-(4-(3-(1-Cyanopyrrolidin-2-yl)-1,2,4-oxadiazol-5-yl)pyrimidin-2-yl)picolinonitrile], the half-maximal inhibitory concentration (IC50) was under 100 nM.

With `N#Cc1cccc(-c2cc(-c3nc(C4CCCN4C#N)no3)ncn2)c1` (centres unmarked) [Example 189, 2-(5-(6-(3-Cyanophenyl)pyrimidin-4-yl)-1,2,4-oxadiazol-3-yl)pyrrolidine-1-carbonitrile], the half-maximal inhibitory concentration (IC50) was 100 to 1000 nM.

Take `N#Cc1cnn(-c2cccc(-c3nc([C@@H]4CCCN4C#N)no3)c2)c1` [Example 190, (S)-1-(3-(3-(1-Cyanopyrrolidin-2-yl)-1,2,4-oxadiazol-5-yl)phenyl)-1H-pyrazole-4-carbonitrile]: the half-maximal inhibitory concentration (IC50) lay within 100 to 1000 nM.

For the molecule `N#Cc1cnn(-c2ccnc(-c3nc([C@@H]4CCCN4C#N)no3)c2)c1` [Example 191, (S)-1-(2-(3-(1-Cyanopyrrolidin-2-yl)-1,2,4-oxadiazol-5-yl)pyridin-4-yl)-1H-pyrazole-4-carbonitrile], the IC50 was 1000 to 10000 nM.

With `N#Cc1cnn(-c2cc(-c3nc([C@@H]4CCCN4C#N)no3)ccn2)c1` [Example 193, (S)-1-(4-(3-(1-Cyanopyrrolidin-2-yl)-1,2,4-oxadiazol-5-yl)pyridin-2-yl)-1H-pyrazole-4-carbonitrile], the concentration for half-maximal inhibition (IC50) lay in the range of 1000 to 10000 nM.

Turning to `N#CN1CCC(c2cc(-c3ccc(-c4ccccc4)cn3)n[nH]2)C1` (centres unmarked) [Example 194, 3-(5-(5-Phenylpyridin-2-yl)-1H-pyrazol-3-yl)pyrrolidine-1-carbonitrile], the IC50 is under 100 nM.

Regarding `N#CN1CCC(c2cc(-c3ccc(-c4ncccn4)cn3)n[nH]2)C1` (centres unmarked) [Example 195, 3-(3-(5-(Pyrimidin-2-yl)pyridin-2-yl)-1H-pyrazol-5-yl)pyrrolidine-1-carbonitrile], the concentration for half-maximal inhibition (IC50) is under 100 nM.

`N#CN1CCC(c2[nH]nc(-c3cccc(N4CCCCC4)n3)c2F)C1` (centres unmarked) [Example 196, 3-(4-Fluoro-3-(6-(piperidin-1-yl)pyridin-2-yl)-1H-pyrazol-5-yl)pyrrolidine-1-carbonitrile]: the half-inhibitory concentration (IC50) fell in the range of 100 to 1000 nM.

`N#Cc1cccc(C2CN(c3noc(C4CCN(C#N)C4)n3)C2)c1` (centres unmarked) [Example 197, 3-(3-(3-(3-Cyanophenyl)azetidin-1-yl)-1,2,4-oxadiazol-5-yl)pyrrolidine-1-carbonitrile]: the half-inhibitory concentration (IC50) lay in the range of 100 to 1000 nM.

`N#Cc1ccc(C2CN(c3noc(C4CCN(C#N)C4)n3)C2)cc1` (centres unmarked) [Example 198, 3-(3-(3-(4-Cyanophenyl)azetidin-1-yl)-1,2,4-oxadiazol-5-yl)pyrrolidine-1-carbonitrile]: the 50% inhibitory concentration (IC50) was in the range of 100 to 1000 nM.

Regarding `N#CN1CCC(c2n[nH]c(-c3ccnc(-c4ccccc4)c3)n2)C1` (centres unmarked) [Example 199, 3-(3-(2-Phenylpyridin-4-yl)-1H-1,2,4-triazol-5-yl)pyrrolidine-1-carbonitrile], the IC50 was in the range of 100 to 1000 nM.

Consider `N#Cc1ccc(-c2nccc(-c3nc([C@@H]4CCCN4C#N)no3)n2)cn1` [Example 201, (S)-5-(4-(3-(1-Cyanopyrrolidin-2-yl)-1,2,4-oxadiazol-5-yl)pyrimidin-2-yl)picolinonitrile], for which the IC50 fell in the range of 100 to 1000 nM.

As to `N#Cc1cnn(-c2cncc(-c3nc([C@@H]4CCCN4C#N)no3)n2)c1` [Example 202, (S)-1-(6-(3-(1-Cyanopyrrolidin-2-yl)-1,2,4-oxadiazol-5-yl)pyrazin-2-yl)-1H-pyrazole-4-carbonitrile], the IC50 was 100 to 1000 nM.

Take `N#Cc1cc(-c2cncc(-c3nc([C@@H]4CCCN4C#N)no3)n2)ccn1` [Example 203, (S)-4-(6-(3-(1-Cyanopyrrolidin-2-yl)-1,2,4-oxadiazol-5-yl)pyrazin-2-yl)picolinonitrile]: the IC50 is under 100 nM.

With `N#Cc1cc(-c2cc(-c3nc([C@@H]4CCCN4C#N)no3)cnn2)ccn1` [Example 204, (S)-4-(5-(3-(1-Cyanopyrrolidin-2-yl)-1,2,4-oxadiazol-5-yl)pyridazin-3-yl)picolinonitrile], the IC50 was 100 to 1000 nM.
